Measured values as given in the Kinase Knowledgebase extract (Sharma et al. 2016).

Columns and labels:
CDK2 (Human) = CDK2 (Human) (UniProt P24941); assay: Enzyme Assay
EGFR (human) = EGFR (human) (UniProt P00533)
Sequence of EGFR (human) (P00533 whole entry, looked up): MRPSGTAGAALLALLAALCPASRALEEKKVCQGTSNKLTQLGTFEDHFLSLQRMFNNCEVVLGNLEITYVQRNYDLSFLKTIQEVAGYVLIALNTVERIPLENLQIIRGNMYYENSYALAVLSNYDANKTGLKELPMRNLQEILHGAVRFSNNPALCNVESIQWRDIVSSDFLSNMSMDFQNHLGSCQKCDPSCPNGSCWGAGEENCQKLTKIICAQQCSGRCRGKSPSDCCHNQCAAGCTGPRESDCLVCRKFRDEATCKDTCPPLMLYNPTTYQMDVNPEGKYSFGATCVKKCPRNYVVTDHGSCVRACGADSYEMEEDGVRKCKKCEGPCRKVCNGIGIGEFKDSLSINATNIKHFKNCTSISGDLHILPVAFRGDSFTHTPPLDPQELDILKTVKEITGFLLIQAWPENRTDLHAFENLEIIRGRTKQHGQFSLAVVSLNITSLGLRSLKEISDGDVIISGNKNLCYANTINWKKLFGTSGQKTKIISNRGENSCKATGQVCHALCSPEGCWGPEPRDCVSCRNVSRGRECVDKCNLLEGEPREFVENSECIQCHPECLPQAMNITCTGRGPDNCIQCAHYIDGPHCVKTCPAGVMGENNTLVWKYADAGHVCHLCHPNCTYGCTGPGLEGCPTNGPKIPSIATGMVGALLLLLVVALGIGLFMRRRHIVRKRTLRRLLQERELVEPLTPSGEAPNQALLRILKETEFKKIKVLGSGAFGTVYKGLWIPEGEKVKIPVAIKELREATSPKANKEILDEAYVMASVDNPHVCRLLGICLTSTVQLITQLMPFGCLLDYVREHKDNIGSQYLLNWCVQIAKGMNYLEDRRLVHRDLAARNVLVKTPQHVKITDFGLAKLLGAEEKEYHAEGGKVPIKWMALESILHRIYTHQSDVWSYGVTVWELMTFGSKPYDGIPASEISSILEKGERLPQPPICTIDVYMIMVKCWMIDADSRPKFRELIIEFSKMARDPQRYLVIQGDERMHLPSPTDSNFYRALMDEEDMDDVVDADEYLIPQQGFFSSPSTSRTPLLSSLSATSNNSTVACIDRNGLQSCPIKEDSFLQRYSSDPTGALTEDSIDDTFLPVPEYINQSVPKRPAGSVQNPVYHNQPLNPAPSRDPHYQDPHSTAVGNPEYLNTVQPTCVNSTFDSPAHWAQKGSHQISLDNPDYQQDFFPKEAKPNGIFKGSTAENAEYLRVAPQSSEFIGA

| SMILES | IC50 (CDK2 (Human)) | IC50 (EGFR (human)) |
| --- | --- | --- |
| Cc1[nH]nc2c1N=C(c1ccccc1Cl)c1cc(N)ccc1N2 | 88 nM | 989 nM |
| Cc1[nH]nc2c1N=C(c1ccccc1Cl)c1cc(NS(=O)(=O)N(C)C)ccc1N2 | 46 nM |  |
| Cc1[nH]nc2c1N=C(c1ccccc1Cl)c1cc(NS(C)(=O)=O)ccc1N2 | 24 nM |  |
| Cc1[nH]nc2c1N=C(c1ccccc1F)c1cc(C#N)ccc1N2 | 16 nM | 10900 nM |
| Cc1[nH]nc2c1N=C(c1ccccc1)c1cc(Cl)ccc1N2 | 490 nM |  |

Continued by falling IC50 (CDK2 (Human)), values first:

| IC50 (CDK2 (Human)) | IC50 (EGFR (human)) | SMILES |
| --- | --- | --- |
| 440 nM |  | Cc1[nH]nc2c1N=C(c1ccccc1Cl)c1cc(Cl)ccc1N2 |
| 320 nM |  | COc1ccc2c(c1)C(c1ccccc1Cl)=Nc1c(n[nH]c1C)N2 |
| 190 nM |  | Cc1[nH]nc2c1N=C(c1ccccc1F)c1cc(Cl)ccc1N2 |
| 38 nM | 726 nM | CC(=O)Nc1ccc2c(c1)C(c1ccccc1Cl)=Nc1c(n[nH]c1C)N2 |
| 17 nM |  | Cc1[nH]nc2c1N=C(c1ccccc1F)c1cc(C(N)=O)ccc1N2 |
